Reference: patent publication US20190127381A1, “SUBSTITUTED FUSED PYRIMIDINONE COMPOUNDS” (TORRENT PHARMACEUTICALS LIMITED, priority 2016, published 2019)

Columns and labels:
[1] = molecular target: T1, purified recombinant human PI3K enzyme γ (Homo sapiens, UniProt P48736); test: Inhibition of PI3-Kinase enzymatic activity (HTRF enzyme assay), γ; assay type: biochemical; conditions: 1 μM compound; PI3K γ 100 ng/well; PIP2 10 μM; ATP 50 μM; read-out: Percentage inhibition of PI3K activity, γ
T1 construct: purchased Invitrogen, USA
Procedure: (§1) Inhibition of PI3-Kinase enzymatic activity was determined using a homogeneous time-resolved fluorescence (HTRF) kit from Eurofins. 1 μM of Compounds of present invention were premixed with DMSO. The experiment was initiated by mixing 1.0% DMSO as vehicle/compounds with purified recombinant human PI3K enzyme {δ (50 ng/well); γ (100 ng/well)} (Invitrogen, USA) and substrate (PIP2, 10 μM) in the wells and incubation for 15 min at room temperature. There after ATP was added (δ at 200 μM, and γ at 50 μM) in to the wells containing reaction mixture, followed by re-incubation for 30 minutes at room temperature. Reaction was terminated by addition of a stopping solution and was further incubated for 4 hours at room temperature before reading using Envision multimode reader (Perkin Elmer). Percentage inhibition of PI3K activity was calculated by determining ratio of specific europium 665 nm energy transfer signal to reference 615 nm signals.

[2] = molecular target: T2, purified recombinant human PI3K enzyme δ (Homo sapiens, UniProt O00329); test: Inhibition of PI3-Kinase enzymatic activity (HTRF enzyme assay), δ; assay type: biochemical; conditions: 1 μM compound; PI3K δ 50 ng/well; PIP2 10 μM; ATP 200 μM; read-out: Percentage inhibition of PI3K activity, δ
T2 construct: purchased Invitrogen, USA
Procedure: as §1

T2 sequence (O00329 whole entry): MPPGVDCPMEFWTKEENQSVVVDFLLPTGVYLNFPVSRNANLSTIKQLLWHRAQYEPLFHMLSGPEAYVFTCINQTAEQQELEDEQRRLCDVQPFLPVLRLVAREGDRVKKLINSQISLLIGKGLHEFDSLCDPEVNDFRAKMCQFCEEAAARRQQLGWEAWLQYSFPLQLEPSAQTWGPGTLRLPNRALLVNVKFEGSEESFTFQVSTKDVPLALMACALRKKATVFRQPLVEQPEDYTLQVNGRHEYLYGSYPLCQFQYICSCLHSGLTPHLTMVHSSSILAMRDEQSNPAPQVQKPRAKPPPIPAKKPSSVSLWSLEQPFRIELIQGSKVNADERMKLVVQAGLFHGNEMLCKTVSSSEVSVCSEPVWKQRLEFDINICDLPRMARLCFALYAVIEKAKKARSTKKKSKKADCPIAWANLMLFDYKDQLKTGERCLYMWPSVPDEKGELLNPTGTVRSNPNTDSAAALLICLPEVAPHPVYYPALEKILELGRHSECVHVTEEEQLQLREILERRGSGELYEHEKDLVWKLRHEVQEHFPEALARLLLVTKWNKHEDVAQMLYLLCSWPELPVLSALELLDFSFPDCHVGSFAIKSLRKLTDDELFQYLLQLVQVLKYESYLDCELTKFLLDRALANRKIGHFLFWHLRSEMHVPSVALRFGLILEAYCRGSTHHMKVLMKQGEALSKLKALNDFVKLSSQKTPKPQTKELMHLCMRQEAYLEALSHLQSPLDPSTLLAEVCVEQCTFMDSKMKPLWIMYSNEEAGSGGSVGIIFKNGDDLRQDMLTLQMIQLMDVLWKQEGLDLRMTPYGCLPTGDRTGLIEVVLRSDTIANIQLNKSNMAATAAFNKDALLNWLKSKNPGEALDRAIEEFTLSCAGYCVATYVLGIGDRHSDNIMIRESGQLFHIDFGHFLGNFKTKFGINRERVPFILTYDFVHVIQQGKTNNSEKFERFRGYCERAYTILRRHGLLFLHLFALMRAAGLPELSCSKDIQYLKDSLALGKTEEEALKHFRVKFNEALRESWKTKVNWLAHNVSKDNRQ
T2 sequence (P27986 whole entry partner): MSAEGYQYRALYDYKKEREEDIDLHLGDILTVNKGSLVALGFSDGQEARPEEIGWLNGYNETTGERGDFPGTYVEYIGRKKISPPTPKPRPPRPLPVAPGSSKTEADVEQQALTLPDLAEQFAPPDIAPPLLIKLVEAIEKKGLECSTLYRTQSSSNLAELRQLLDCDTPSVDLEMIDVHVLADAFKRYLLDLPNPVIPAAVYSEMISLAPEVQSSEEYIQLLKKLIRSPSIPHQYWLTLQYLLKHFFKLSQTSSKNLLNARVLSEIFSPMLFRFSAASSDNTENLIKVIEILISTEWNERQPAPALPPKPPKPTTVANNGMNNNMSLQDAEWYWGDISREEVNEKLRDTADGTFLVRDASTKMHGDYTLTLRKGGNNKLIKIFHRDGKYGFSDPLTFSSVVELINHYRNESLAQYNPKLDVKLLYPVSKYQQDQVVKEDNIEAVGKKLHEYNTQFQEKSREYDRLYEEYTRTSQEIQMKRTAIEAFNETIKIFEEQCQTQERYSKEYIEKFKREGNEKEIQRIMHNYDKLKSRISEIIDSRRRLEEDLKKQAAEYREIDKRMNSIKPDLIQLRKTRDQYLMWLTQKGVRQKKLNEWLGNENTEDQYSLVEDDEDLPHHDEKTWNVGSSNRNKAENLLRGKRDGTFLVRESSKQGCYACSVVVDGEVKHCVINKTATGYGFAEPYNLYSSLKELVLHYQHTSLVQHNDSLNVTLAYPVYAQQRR
T1 sequence (P48736 whole entry): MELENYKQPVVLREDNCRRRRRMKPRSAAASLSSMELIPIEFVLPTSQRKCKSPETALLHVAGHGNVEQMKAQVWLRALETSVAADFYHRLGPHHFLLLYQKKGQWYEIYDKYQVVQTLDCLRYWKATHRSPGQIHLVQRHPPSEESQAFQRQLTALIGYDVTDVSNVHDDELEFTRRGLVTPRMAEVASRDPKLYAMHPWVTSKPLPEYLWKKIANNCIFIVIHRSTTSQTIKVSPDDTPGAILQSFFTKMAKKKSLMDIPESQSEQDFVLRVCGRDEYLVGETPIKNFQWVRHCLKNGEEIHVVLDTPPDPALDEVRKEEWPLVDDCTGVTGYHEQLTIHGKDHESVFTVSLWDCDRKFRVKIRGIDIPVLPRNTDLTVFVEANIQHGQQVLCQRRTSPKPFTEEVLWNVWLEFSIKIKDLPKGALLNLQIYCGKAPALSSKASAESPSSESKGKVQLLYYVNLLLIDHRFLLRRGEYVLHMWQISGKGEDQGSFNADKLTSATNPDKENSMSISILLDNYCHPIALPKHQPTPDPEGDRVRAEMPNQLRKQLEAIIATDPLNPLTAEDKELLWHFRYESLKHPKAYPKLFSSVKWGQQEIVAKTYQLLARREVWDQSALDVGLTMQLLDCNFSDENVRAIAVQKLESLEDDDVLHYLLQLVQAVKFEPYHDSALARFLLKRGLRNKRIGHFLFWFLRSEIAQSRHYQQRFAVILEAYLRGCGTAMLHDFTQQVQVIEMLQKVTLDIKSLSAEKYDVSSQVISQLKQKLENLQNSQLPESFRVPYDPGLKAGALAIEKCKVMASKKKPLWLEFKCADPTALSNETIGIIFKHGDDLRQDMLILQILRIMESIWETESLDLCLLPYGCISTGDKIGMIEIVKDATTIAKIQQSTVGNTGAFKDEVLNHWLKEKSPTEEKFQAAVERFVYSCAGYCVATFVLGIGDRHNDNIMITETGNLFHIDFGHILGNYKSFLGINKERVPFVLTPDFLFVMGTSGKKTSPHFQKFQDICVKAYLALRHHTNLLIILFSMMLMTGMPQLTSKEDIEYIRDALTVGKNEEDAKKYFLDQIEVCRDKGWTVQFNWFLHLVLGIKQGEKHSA

| SMILES | inhibition at 1 µM [1] [%] | inhibition at 1 µM [2] [%] |
| --- | --- | --- |
| Cc1ccc(C2(n3c(Cn4nc(-c5ccc(O)c6c5CC(C)(C)O6)c5c(N)ncnc54)nc4cccc(-c5ccnn5C)c4c3=O)CC2)cc1 [compound 40, 2-{[4-amino-3-(7-hydroxy-2,2-dimethyl-2,3-dihydro-1-benzofuran-4-yl)-1H-pyrazolo[3,4-d]pyrimidin-1-yl]methyl}-3-[1-(4-methylphenyl)cyclopropyl]-5-(1-methyl-1H-pyrazol-5-yl)quinazolin-4(3H)-one] | 60 to 80 | 80 to 100 |
| Cc1ccc(-c2cccc3nc(Cn4nc(-c5ccc(O)c6c5CC(C)(C)O6)c5c(N)ncnc54)n(-n4cccc4)c(=O)c23)o1 [compound 15, 2-{[4-amino-3-(7-hydroxy-2,2-dimethyl-2,3-dihydro-1-benzofuran-4-yl)-1H-pyrazolo[3,4-d]pyrimidin-1-yl]methyl}-5-(5-methylfuran-2-yl)-3-(1H-pyrrol-1-yl)quinazolin-4(3H)-one] | 80 to 100 | 80 to 100 |
| Cc1ccc(C)n1-n1c(Cn2nc(-c3ccc(O)c4c3CC(C)(C)O4)c3c(N)ncnc32)nc2cccc(C#CCN3CCN(C)CC3)c2c1=O [compound 57, 2-{[4-amino-3-(7-hydroxy-2,2-dimethyl-2,3-dihydro-1-benzofuran-4-yl)-1H-pyrazolo[3,4-d]pyrimidin-1-yl]methyl}-3-(2,5-dimethyl-1H-pyrrol-1-yl)-5-[3-(4-methylpiperazin-1-yl)prop-1-yn-1-yl]quinazolin-4(3H)-one] | 60 to 80 | 80 to 100 |
| CC1(C)Cc2c(-c3nn(Cc4nc5cccc(-c6ccncc6)c5c(=O)n4C4(c5ccccc5)CC4)c4ncnc(N)c34)ccc(O)c2O1 [compound 21, 2-{[4-amino-3-(7-hydroxy-2,2-dimethyl-2,3-dihydro-1-benzofuran-4-yl)-1H-pyrazolo[3,4-d]pyrimidin-1-yl]methyl}-3-(1-phenylcyclopropyl)-5-(pyridin-4-yl)quinazolin-4(3H)-one] | 60 to 80 | 80 to 100 |
| Cc1ccc(C)n1-n1c(Cn2nc(-c3ccc(O)c4c3CC(C)(C)O4)c3c(N)ncnc32)nc2cccc(-c3cccn3C)c2c1=O [compound 77, 2-{[4-amino-3-(7-hydroxy-2,2-dimethyl-2,3-dihydro-1-benzofuran-4-yl)-1H-pyrazolo[3,4-d]pyrimidin-1-yl]methyl}-3-(2,5-dimethyl-1H-pyrrol-1-yl)-5-(1-methyl-1H-pyrrol-2-yl)quinazolin-4(3H)-one] | 80 to 100 | 80 to 100 |
| CCn1cc(-c2cccc3nc(Cn4nc(-c5ccc(O)c6c5CC(C)(C)O6)c5c(N)ncnc54)n(-n4c(C)ccc4C)c(=O)c23)cn1 [compound 85, 2-{[4-amino-3-(7-hydroxy-2,2-dimethyl-2,3-dihydro-1-benzofuran-4-yl)-1H-pyrazolo[3,4-d]pyrimidin-1-yl]methyl}-3-(2,5-dimethyl-1H-pyrrol-1-yl)-5-(1-ethyl-1H-pyrazol-4-yl)quinazolin-4(3H)-one] | 80 to 100 | 80 to 100 |
| Cc1ccc(C)n1-n1c(Cn2nc(-c3ccc(O)c4c3CC(C)(C)O4)c3c(N)ncnc32)nc2cccc(C#CCN3CCNC(=O)C3)c2c1=O [compound 68, 2-{[4-amino-3-(7-hydroxy-2,2-dimethyl-2,3-dihydro-1-benzofuran-4-yl)-1H-pyrazolo[3,4-d]pyrimidin-1-yl]methyl}-3-(2,5-dimethyl-1H-pyrrol-1-yl)-5-[3-(3-oxopiperazin-1-yl)prop-1-yn-1-yl]quinazolin-4(3H)-one] | 80 to 100 | 80 to 100 |
| COc1ccc(-c2nn(Cc3nc4cccc(C)c4c(=O)n3-n3cccc3)c3ncnc(N)c23)c2c1OC(C)(C)C2 [compound 84, 2-{[4-amino-3-(7-methoxy-2,2-dimethyl-2,3-dihydro-1-benzofuran-4-yl)-1H-pyrazolo[3,4-d]pyrimidin-1-yl]methyl}-5-methyl-3-(1H-pyrrol-1-yl)quinazolin-4(3H)-one] | 60 to 80 | 80 to 100 |
| CC(=O)NCC#Cc1cccc2nc(Cn3nc(-c4ccc(O)c5c4CC(C)(C)O5)c4c(N)ncnc43)n(-n3cccc3)c(=O)c12 [compound 28, N-{3-[2-{[4-amino-3-(7-hydroxy-2,2-dimethyl-2,3-dihydro-1-benzofuran-4-yl)-1H-pyrazolo[3,4-d]pyrimidin-1-yl]methyl}-4-oxo-3-(1H-pyrrol-1-yl)-3,4-dihydroquinazolin-5-yl]prop-2-yn-1-yl}acetamide] | 80 to 100 | 80 to 100 |
| C#Cc1cccc2nc(Cn3nc(-c4ccc(O)c5c4CC(C)(C)O5)c4c(N)ncnc43)n(-n3cccc3)c(=O)c12 [compound 20, 2-{[4-amino-3-(7-hydroxy-2,2-dimethyl-2,3-dihydro-1-benzofuran-4-yl)-1H-pyrazolo[3,4-d]pyrimidin-1-yl]methyl}-5-ethynyl-3-(1H-pyrrol-1-yl)quinazolin-4(3H)-one] | 80 to 100 | 80 to 100 |
| CC1(C)Cc2c(-c3nn(Cc4nc5cccc(-c6cccnc6)c5c(=O)n4-n4cccc4)c4ncnc(N)c34)ccc(O)c2O1 [compound 10, 2-{[4-amino-3-(7-hydroxy-2,2-dimethyl-2,3-dihydro-1-benzofuran-4-yl)-1H-pyrazolo[3,4-d]pyrimidin-1-yl]methyl}-5-(pyridin-3-yl)-3-(1H-pyrrol-1-yl)quinazolin-4(3H)-one] | 60 to 80 | 80 to 100 |
| CC1(C)Cc2c(-c3nn(Cc4nc5cccc(Cl)c5c(=O)n4C4(c5ccccc5)CC4)c4ncnc(N)c34)ccc(O)c2O1 [compound 5, 2-{[4-amino-3-(7-hydroxy-2,2-dimethyl-2,3-dihydro-1-benzofuran-4-yl)-1H-pyrazolo[3,4-d]pyrimidin-1-yl]methyl}-5-chloro-3-(1-phenylcyclopropyl)quinazolin-4(3H)-one] | 80 to 100 | 80 to 100 |
| CC1(C)Cc2c(-c3nn(Cc4nc5cccc(C#CCN6CCOCC6)c5c(=O)n4-n4cccc4)c4ncnc(N)c34)ccc(O)c2O1 [compound 35, 2-{[4-amino-3-(7-hydroxy-2,2-dimethyl-2,3-dihydro-1-benzofuran-4-yl)-1H-pyrazolo[3,4-d]pyrimidin-1-yl]methyl}-5-[3-(morpholin-4-yl)prop-1-yn-1-yl]-3-(1H-pyrrol-1-yl)quinazolin-4(3H)-one] | 60 to 80 | 80 to 100 |
| Cc1ccc(C)n1-n1c(Cn2nc(-c3ccc(O)c4c3CCC4)c3c(N)ncnc32)nc2cccc(-c3cnn(C)c3)c2c1=O [compound 93, 2-{[4-amino-3-(7-hydroxy-2,3-dihydro-1H-inden-4-yl)-1H-pyrazolo[3,4-d]pyrimidin-1-yl]methyl}-3-(2,5-dimethyl-1H-pyrrol-1-yl)-5-(1-methyl-1H-pyrazol-4-yl)quinazolin-4(3H)-one] | 80 to 100 | 80 to 100 |
| Cc1ccccc1C1(n2c(Cn3nc(-c4ccc(O)c5c4CC(C)(C)O5)c4c(N)ncnc43)nc3cccc(-c4ccnn4C)c3c2=O)CC1 [compound 59, 2-{[4-amino-3-(7-hydroxy-2,2-dimethyl-2,3-dihydro-1-benzofuran-4-yl)-1H-pyrazolo[3,4-d]pyrimidin-1-yl]methyl}-3-[1-(2-methylphenyl)cyclopropyl]-5-(1-methyl-1H-pyrazol-5-yl)quinazolin-4(3H)-one] | 60 to 80 | 80 to 100 |
| Nc1ncnc2c1c(-c1ccc(O)c3c1CCC3)nn2Cc1nc2cccc(Cl)c2c(=O)n1-n1cccc1 [compound 1, 2-{[4-amino-3-(7-hydroxy-2,3-dihydro-1H-inden-4-yl)-1H-pyrazolo[3,4-d]pyrimidin-1-yl]methyl}-5-chloro-3-(1H-pyrrol-1-yl)quinazolin-4(3H)-one] | 80 to 100 | 80 to 100 |
| Cc1cccc2nc(Cn3nc(-c4ccc(O)c5c4CC(C)(C)O5)c4c(N)ncnc43)n(C3(c4cccs4)CC3)c(=O)c12 [compound 60, 2-{[4-amino-3-(7-hydroxy-2,2-dimethyl-2,3-dihydro-1-benzofuran-4-yl)-1H-pyrazolo[3,4-d]pyrimidin-1-yl]methyl}-5-methyl-3-[1-(thiophen-2-yl)cyclopropyl]quinazolin-4(3H)-one] | 60 to 80 | 80 to 100 |
| Cc1ccc(C)n1-n1c(Cn2nc(-c3ccc(O)c4c3CC(C)(C)O4)c3c(N)ncnc32)nc2cccc(C#CCO)c2c1=O [compound 42, 2-{[4-amino-3-(7-hydroxy-2,2-dimethyl-2,3-dihydro-1-benzofuran-4-yl)-1H-pyrazolo[3,4-d]pyrimidin-1-yl]methyl}-3-(2,5-dimethyl-1H-pyrrol-1-yl)-5-(3-hydroxyprop-1-yn-1-yl)quinazolin-4(3H)-one] | 80 to 100 | 80 to 100 |
| Cn1cc(-c2cccc3nc(Cn4nc(-c5ccc(O)c6c5CC(C)(C)O6)c5c(N)ncnc54)n(C4(c5ccsc5)CC4)c(=O)c23)cn1 [compound 69, 2-{[4-amino-3-(7-hydroxy-2,2-dimethyl-2,3-dihydro-1-benzofuran-4-yl)-1H-pyrazolo[3,4-d]pyrimidin-1-yl]methyl}-5-(1-methyl-1H-pyrazol-4-yl)-3-[1-(thiophen-3-yl)cyclopropyl]quinazolin-4(3H)-one] | 60 to 80 | 80 to 100 |
